These results are taken from PMC12736255, “Reinvestigating Pyrrol-2-One-Based Compounds: From Antimicrobial Agents to Promising Antitumor Candidates” (Pharmaceuticals, 2025).

What all share (experiment): NCI-60 single-dose screen
Assay [1] deals with UO-31. In kind it is cell-based, human. The conditions noted are these: UO-31, 10^–5 M. The method in brief: (§1)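 Compounds were tested at a single concentration of 10^−5 M against the NCI panel of 60 human tumor cell lines covering leukemia, melanoma, lung, colon, CNS, ovarian, renal, prostate and breast cancers.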
The test system of assay [2] is BT-549. It is filed as cell-based, human. Conditions: BT-549, 10^–5 M. A digest of the protocol: as §1
Assay [3] deals with U251. It is filed as cell-based, human. The conditions noted are these: U251, 10^–5 M. A digest of the protocol:
as §1

Assay [4] concerns HOP-62. It is filed as cell-based, human. Conditions: HOP-62, 10^–5 M. A digest of the protocol:
as §1

The subject of assay [5] is SF-295. It is filed as cell-based, human. The conditions noted are these: SF-295, 10^–5 M. A digest of the protocol: as §1
Assay [6] deals with MDA-MB-468. It is filed as cell-based, human. The conditions noted are these: MDA-MB-468, 10^–5 M. The method in brief:
as §1

Assay [7] deals with OVCAR-3. In kind it is cell-based. Conditions: Homo sapiens; OVCAR-3, 10^–5 M; read-out: GI (%). A digest of the protocol:
as §1

Assay [8] has as its system NCI-H460. In kind it is cell-based. Conditions: Homo sapiens; NCI-H460, 10^–5 M; read-out: GI (%). The method in brief: as §1
In assay [9] the test system is PC-3. In kind it is cell-based. Conditions: Homo sapiens, PC-3, PC-3, 10^–5 M; read-out: GI (%). The method in brief:
as §1

In assay [10] the test system is TK-10. It is filed as cell-based. Conditions: Homo sapiens; TK-10, 10^–5 M; read-out: GI (%). The method in brief: as §1
In assay [11] the test system is HT-29. It is filed as cell-based. The conditions noted are these: Homo sapiens; HT-29, 10^–5 M; read-out: GI (%). A digest of the protocol: as §1
Assay [12] deals with COLO205. It is filed as cell-based. The conditions noted are these: Homo sapiens, COLO 205; COLO205, 10^–5 M; read-out: GI (%). The method in brief: as §1
Assay [13] relates to SK-MEL-5. It is filed as cell-based. The conditions noted are these: Homo sapiens; SK-MEL-5, 10^–5 M; read-out: GI (%). A digest of the protocol:
as §1

For assay [14], the system named is MALME-3M. In kind it is cell-based. The conditions noted are these: Homo sapiens, 10^–5 M, read-out: GI (%). A digest of the protocol: as §1
The subject of assay [15] is HOP-92. It is filed as cell-based. Conditions: Homo sapiens; HOP-92, 10^–5 M; read-out: GI (%). A digest of the protocol: as §1
The subject of assay [16] is OVCAR-8. In kind it is cell-based. The conditions noted are these: Homo sapiens; OVCAR-8, 10^–5 M; read-out: GI (%). A digest of the protocol:
as §1

Assay [17] concerns KM12. It is filed as cell-based. Conditions: Homo sapiens; KM12, 10^–5 M; read-out: GI (%). The method in brief: as §1
Assay [18] deals with ACHN. In kind it is cell-based. Conditions: Homo sapiens, 10^–5 M, read-out: GI (%). A digest of the protocol:
as §1

The test system of assay [19] is SF-268. In kind it is cell-based. The conditions noted are these: Homo sapiens; SF-268, 10^–5 M; read-out: GI (%). The method in brief: as §1
Assay [20] deals with SR. In kind it is cell-based. Conditions: Homo sapiens, 10^–5 M, read-out: GI (%). The method in brief: as §1
Assay [21] has as its system NCI/ADR-RES. In kind it is cell-based. The conditions noted are these: Homo sapiens, 10^–5 M, read-out: GI (%). The method in brief: as §1

Turning to `COc1cc(OC)c(C2C=C(Nc3ccc(I)cc3)C(=O)N2c2ccc(I)cc2)cc1OC` (centres unmarked) [3k], the “GI (%)” value in assay [1] is listed as 0%; in assay [2], 10%; in [3], 0%; in assay [4] it was 0%; in assay [5], 2%; in [6] it was 44%. The inhibition at 10 µM turned out to be 0% in [7]; 0% in assay [8]; 0% in assay [9]; 1% in assay [10]; 0% in [11]; 0% in [12]. In addition, the inhibition at 10 µM turned out to be 12% in [13]; 0% in assay [14]; 0% in assay [15]; 0% in assay [16]; 2% in assay [17]; 0% in assay [18]. The inhibition at 10 µM in assay [19] worked out at 1%; in assay [20], 7%; in [21], 0%.

`COc1ccccc1C1C=C(Nc2ccc(I)cc2)C(=O)N1c1ccc(I)cc1` (centres unmarked) [3i]: the “GI (%)” value in assay [1] was 27%; in assay [2] it was 2%; in assay [3], 0%; in [4], 0%; in assay [5], 28%; in assay [6], 43%. The inhibition at 10 µM came out at 46% in assay [7]; 9% in [8]; 15% in assay [9]; 30% in [10]; 5% in assay [11]; 0% in assay [12]. The inhibition at 10 µM came to 4% in assay [13]; 45% in [14]; 20% in assay [15]; 17% in [16]; 9% in assay [17]; 24% in assay [19]. For the same molecule, the figures for the inhibition at 10 µM in assay [20] and in assay [21] were 23% and 3%, respectively.
